Assays:
OVCAR-8 = assay: NCI in vitro DTP human cell line screen, OVCAR-8; assay type: cell-based; details: Ovarian Cancer, 1.00E−5 Molar
Description: (§1) Then, a cell toxicity assay of the cancer lines made by National Cancer Institute will be discussed as follows. The cell toxicity assay is performed by choosing ten compounds (existing certification numbers) from the 59 compounds disclosed in the present invention first.

OVCAR-3 = assay: NCI in vitro DTP human cell line screen, OVCAR-3; assay type: cell-based; details: Ovarian Cancer, 1.00E−5 Molar
Description: as §1

RPMI-8226 = assay: NCI in vitro DTP human cell line screen, RPMI-8226; assay type: cell-based; details: Leukemia, 1.00E−5 Molar
Description: as §1

MALME-3M = assay: NCI in vitro DTP human cell line screen, MALME-3M; assay type: cell-based; details: Melanoma, 1.00E−5 Molar
Description: as §1

M14 = assay: NCI in vitro DTP human cell line screen, M14; assay type: cell-based; details: Melanoma, 1.00E−5 Molar
Description: as §1

NCI-H23 = assay: NCI in vitro DTP human cell line screen, NCI-H23; assay type: cell-based; details: Non-Small Cell Lung Cancer, 1.00E−5 Molar
Description: as §1

NCI-H322M = assay: NCI in vitro DTP human cell line screen, NCI-H322M; assay type: cell-based; details: Non-Small Cell Lung Cancer, 1.00E−5 Molar
Description: as §1

A control cell lines = assay: MTT assay, A control cell lines (lung cancer cell); assay type: cell-based
Text: Please refer to Table 1 and FIGS. 4A-4C. According to a MTT assay (Table 1), various cell viabilities of the A control cell lines can be obtained and illustrated in FIG. 4A while the compounds No. 2˜30 are used to treat A control cell lines, wherein A control cell lines are lung cancer cell.

CCRF-CEM = assay: NCI in vitro DTP human cell line screen, CCRF-CEM; assay type: cell-based; details: Leukemia, 1.00E−5 Molar
Description: as §1

SF-539 = assay: NCI in vitro DTP human cell line screen, SF-539; assay type: cell-based; details: CNS Cancer, 1.00E−5 Molar
Description: as §1

COLO 205 = assay: NCI in vitro DTP human cell line screen, COLO 205; assay type: cell-based; details: Colon Cancer, 1.00E−5 Molar
Description: as §1

TK-10 = assay: NCI in vitro DTP human cell line screen, TK-10; assay type: cell-based; details: Renal Cancer, 1.00E−5 Molar
Description: as §1

HL-60(TB) = assay: NCI in vitro DTP human cell line screen, HL-60(TB); assay type: cell-based; details: Leukemia, 1.00E−5 Molar
Description: as §1

HOP-92 = assay: NCI in vitro DTP human cell line screen, HOP-92; assay type: cell-based; details: Non-Small Cell Lung Cancer, 1.00E−5 Molar
Description: as §1

HCT-15 = assay: NCI in vitro DTP human cell line screen, HCT-15; assay type: cell-based; details: Colon Cancer, 1.00E−5 Molar
Description: as §1

U251 = assay: NCI in vitro DTP human cell line screen, U251; assay type: cell-based; details: CNS Cancer, 1.00E−5 Molar
Description: as §1

786-0 = assay: NCI in vitro DTP human cell line screen, 786-0; assay type: cell-based; details: Renal Cancer, 1.00E−5 Molar
Description: as §1

OVCAR-4 = assay: NCI in vitro DTP human cell line screen, OVCAR-4; assay type: cell-based; details: Ovarian Cancer, 1.00E−5 Molar
Description: as §1

KM12 = assay: NCI in vitro DTP human cell line screen, KM12; assay type: cell-based; details: Colon Cancer, 1.00E−5 Molar
Description: as §1

SN12C = assay: NCI in vitro DTP human cell line screen, SN12C; assay type: cell-based; details: Renal Cancer, 1.00E−5 Molar
Description: as §1

NCI-H460 = assay: NCI in vitro DTP human cell line screen, NCI-H460; assay type: cell-based; details: Non-Small Cell Lung Cancer, 1.00E−5 Molar
Description: as §1

IGROV1 = assay: NCI in vitro DTP human cell line screen, IGROV1; assay type: cell-based; details: Ovarian Cancer, 1.00E−5 Molar
Description: as §1

EKVX = assay: NCI in vitro DTP human cell line screen, EKVX; assay type: cell-based; details: Non-Small Cell Lung Cancer, 1.00E−5 Molar
Description: as §1

HCC-2998 = assay: NCI in vitro DTP human cell line screen, HCC-2998; assay type: cell-based; details: Colon Cancer, 1.00E−5 Molar
Description: as §1

MDA-MB-231/ATCC = assay: NCI in vitro DTP human cell line screen, MDA-MB-231/ATCC; assay type: cell-based; details: Breast Cancer, 1.00E−5 Molar
Description: as §1

NCI-H226 = assay: NCI in vitro DTP human cell line screen, NCI-H226; assay type: cell-based; details: Non-Small Cell Lung Cancer, 1.00E−5 Molar
Description: as §1

OVCAR-5 = assay: NCI in vitro DTP human cell line screen, OVCAR-5; assay type: cell-based; details: Ovarian Cancer, 1.00E−5 Molar
Description: as §1

SNB-19 = assay: NCI in vitro DTP human cell line screen, SNB-19; assay type: cell-based; details: CNS Cancer, 1.00E−5 Molar
Description: as §1

T-47D = assay: NCI in vitro DTP human cell line screen, T-47D; assay type: cell-based; details: Breast Cancer, 1.00E−5 Molar
Description: as §1

60 cancer lines = assay: NCI cell toxicity assay of 60 cancer lines, whole panel summary; assay type: cell-based, human; details: mean over all cell lines; 1.00E−5 Molar
Description: as §1

O=c1c2ccccc2sc2c(Cl)c(Sc3ccccc3)ccc12 [No. 6, 4-Chloro-3-(phenylthio)-9H-thioxanthen-9-one]
Growth Percent (OVCAR-8): 94.68%
Growth Percent (OVCAR-3): 108.01%
Growth Percent (RPMI-8226): 102.11%
Growth Percent (MALME-3M): 92.44%
Growth Percent (M14): 104.30%
Growth Percent (NCI-H23): 84.67%
Growth Percent (NCI-H322M): 96.11%
cell viabilities of A control cell lines (MTT assay) (A control cell lines): 99.7 ± 4.76%
Growth Percent (CCRF-CEM): 96.58%
Growth Percent (SF-539): 104.85%
Growth Percent (COLO 205): 103.82%
Growth Percent (TK-10): 97.85%
Growth Percent (HL-60(TB)): 103.53%
Growth Percent (HOP-92): 76.04%
Growth Percent (HCT-15): 92.60%
Growth Percent (U251): 94.85%
Growth Percent (786-0): 111.45%
Growth Percent (OVCAR-4): 99.56%
Growth Percent (KM12): 99.82%
Growth Percent (SN12C): 87.55%
Growth Percent (NCI-H460): 108.87%
Growth Percent (IGROV1): 91.62%
Growth Percent (EKVX): 94.90%
Growth Percent (HCC-2998): 106.34%
Growth Percent (MDA-MB-231/ATCC): 93.94%
Growth Percent (NCI-H226): 85.36%
Growth Percent (OVCAR-5): 104.51%
Growth Percent (SNB-19): 98.01%
Growth Percent (T-47D): 87.90%
Growth Percent, Mean (60 cancer lines): 96.75%

— patent US8410161B2, “Thioxanthone ring system derivatives” (National Defense Medical Center, priority 2010, dated 2013)
